Data as given in publication PMC9356275, “A quantitative high-throughput screen identifies compounds that lower expression of the SCA2-and ALS-associated gene ATXN2” (The Journal of Biological Chemistry, 2022).
Counter-ions that a name gives are not always drawn. Like-named read-outs stand apart in the source and are kept apart here.

Experiments:
Type in all cases: cell-based, human
ATXN2-luc [1] = assay: MSSR hit retest: ATXN2-luc luciferase assay, average of H2 and S1 cells (1 and 10 uM); conditions: Homo sapiens; for activity at 1 µM: read-out: H2&S1 ave luc 1uM; for activity / activity at 10 µM: read-out: H2&S1 ave luc 10uM; for activity at 10 µM: head line r3 10uM
From the text: (§1) Supplement mmc2.xlsx, sheet "43 annotated compounds"

ATXN2-luc [2] = assay: MSSR pilot screen: ATXN2-luc luciferase assay (Bright-Glo) in H2 cells, single 10 μM dose; conditions: for SD from mean (ATXN2-luc, Z-score): H2 cells, single dose (title: 10 μM compound), overnight; for ¦Score/1SD¦: absolute score divided by 1SD (0.891 or 0.9)
H2 and S1 cells = assay: Paired MTT viability assay, average of H2 and S1 cells (1 and 10 uM); conditions: Homo sapiens
From the text: as §1

[3] = pilot screen at 10 µM compound, H2 cells expressing ATXN2-luc
[4] = read-out: H2&S1 ave MTT 1uM, 1 uM compound
[5] = read-out: H2&S1 ave MTT 10uM, 10 uM compound
[6] = 1 uM compound, average of H2 and S1 cells
[7] = 1 uM compound, read-out: H2&S1 ave MTT 1uM
[8] = 10 uM compound, read-out: H2&S1 ave MTT 10uM
[9] = pilot screen, H2 cells expressing ATXN2-luc, single dose printed as 10 μM compound

Row | SMILES | activity at 1 µM (ATXN2-luc [1]) [%] | activity (ATXN2-luc [1]) [%] | SD from mean (ATXN2-luc, Z-score) (ATXN2-luc [2]) [SD] | SD from mean (pilot screen) (ATXN2-luc [2]; pilot screen) [SD] | SD from mean (pilot screen) (ATXN2-luc [2]; [3]) | ¦Score/1SD¦ (ATXN2-luc [2]; pilot screen) | viability at 1 µM (H2 and S1 cells; [4]) [%] | viability at 10 µM (H2 and S1 cells; [5]) [%] | activity at 1 µM (ATXN2-luc [1]; [6]) [%] | activity at 10 µM (ATXN2-luc [1]; average of H2 and S1 cells) [%] | viability at 1 µM (H2 and S1 cells; [7]) [%] | viability at 10 µM (H2 and S1 cells; [8]) [%] | SD from mean (pilot screen) (ATXN2-luc [2]; [9])
1 | C[C@H]1O[C@@H](O[C@H]2[C@@H](O)C[C@H](O[C@H]3[C@@H](O)C[C@H](O[C@H]4CC[C@@]5(C)[C@H](CC[C@@H]6[C@@H]5CC[C@]5(C)[C@@H](C7=CC(=O)OC7)CC[C@]65O)C4)O[C@@H]3C)O[C@@H]2C)C[C@H](O)[C@@H]1O [DIGITOXIN] | 27 | 19 | -4.100 | -4.100 | -4.100 | 4.56 | 34.3 | 49.1 | – | – | – | – | –
2 | C[C@]12CC[C@H](O)C[C@H]1CC[C@@H]1[C@@H]2CC[C@]2(C)[C@@H](C3=CC(=O)OC3)CC[C@]12O [Digitoxigenin] | – | – | -3.629 | -3.629 | -3.629 | 4.07 | – | – | 38 | 13 | 81.6 | 74.8 | –
3 | C[C@]12CC[C@H](O)C[C@H]1CC[C@@H]1[C@@H]2C[C@@H](O)[C@]2(C)[C@@H](C3=CC(=O)OC3)CC[C@]12O [Digoxigenin] | – | – | -3.264 | -3.264 | – | 3.66 | – | – | 90 | 22 | 60.4 | 31.6 | -3.264
4 | CC[C@H]1CN2CCc3cc(OC)c(OC)cc3[C@@H]2C[C@@H]1C[C@H]1NCCc2cc(OC)c(OC)cc21 [Emetine dihydrochloride] | – | – | -4.840 | -4.840 | -4.840 | 5.43 | – | – | 18 | 19 | 59.7 | 58.1 | –
5 | CC(=O)O[C@H]1CC[C@@]2(C)[C@H](CC[C@@H]3[C@@H]2CC[C@]2(C)[C@@H](C4=CC(=O)OC4)[C@@H](OC(C)=O)C[C@]32O)C1 [GITOXIGENIN DIACETATE] | 27 | 21 | -4.261 | -4.261 | -4.261 | 4.73 | 39.7 | 40.3 | – | – | – | – | –
6 | C[C@H]1O[C@@H](O[C@H]2[C@@H](O)C[C@H](O[C@H]3[C@@H](O)C[C@H](O[C@H]4CC[C@@]5(C)[C@H](CC[C@@H]6[C@@H]5CC[C@]5(C)[C@@H](C7=CC(=O)OC7)[C@@H](O)C[C@]65O)C4)O[C@@H]3C)O[C@@H]2C)C[C@H](O)[C@@H]1O [GITOXIN] | – | – | -4.086 | -4.086 | -4.086 | 4.54 | – | – | 21 | 12 | 28.7 | 40.3 | –
7 | CO[C@H]1[C@H](O)[C@H](O[C@H]2CC[C@@]3(C)[C@H](CC[C@@H]4[C@@H]3CC[C@]3(C)[C@@H](C5=CC(=O)OC5)CC[C@]43O)C2)O[C@@H](C)[C@@H]1O [NERIIFOLIN] | 17 | 17 | -3.045 | -3.045 | – | 3.38 | 30.8 | 36.1 | – | – | – | – | -3.045
8 | COC(=O)C1=C(C)NC(C)=C(C(=O)OCCN(C)Cc2ccccc2)C1c1cccc([N+](=O)[O-])c1 (stereo not drawn) [NICARDIPINE] | – | – | -2.782 | -2.782 | – | 3.12 | – | – | 112 | 61 | 140 | 87 | -2.782
9 | CO[C@H]1C[C@H](O[C@H]2CC[C@]3(C)[C@H]4CC[C@]5(C)[C@@H](C6=CC(=O)OC6)CC[C@]5(O)[C@@H]4CC[C@]3(O)C2)O[C@H](C)[C@H]1O [PERIPLOCYMARIN] | 75 | 17 | -2.759 | -2.759 | – | 3.07 | 58.7 | 37.1 | – | – | – | – | -2.759
10 | CO[C@H]1[C@H](O)[C@H](O[C@H]2CC[C@@]3(C=O)[C@H](CC[C@@H]4[C@@H]3CC[C@]3(C)[C@@H](C5=CC(=O)OC5)CC[C@]43O)C2)O[C@@H](C)[C@@H]1O [PERUVOSIDE] | 15 | 12 | -4.038 | -4.038 | -4.038 | 4.49 | 47.5 | 60 | – | – | – | – | –
11 | CC(=O)Oc1cccc(O)c1 [RESORCINOL MONOACETATE] | – | – | -6.242 | -6.242 | -6.242 | 6.94 | – | – | 120 | 4.6 | 115 | 19.9 | –
12 | C[C@]12CC[C@H](O)C[C@H]1CC[C@@H]1[C@@H]2[C@H](O)C[C@]2(C)[C@@H](C3=CC(=O)OC3)CC[C@]12O [SARMENTOGENIN] | 53 | 24 | -3.539 | -3.539 | – | 3.93 | 45.8 | 41.2 | – | – | – | – | -3.539
13 | C[C@]12CC[C@H]3[C@@H](CC[C@]4(O)C[C@@H](O)CC[C@]34C=O)[C@@]1(O)CC[C@@H]2C1=CC(=O)OC1 [STROPHANTHIDIN] | 16 | 15 | – | -4.451 | -4.451 | 4.95 | 40.1 | 45.5 | – | – | – | – | –
14 | C[n+]1cc2c3c(ccc2c2ccc4cc5c(cc4c21)OCO5)OCO3 [Sanguinarine] | 127 | 160 | -2.689 | -2.689 | – | 3.02 | 103 | 114 | – | – | – | – | -2.689
